This is an account of results in patent publication US10266564B2, “Cationic lipid cordiarimide hybrid compounds and a process for preparation thereof” (COUNCIL OF SCIENTIFIC & INDUSTRIAL RESEARCH, priority 2014, dated 2019).

“Also recorded” adds a separate entry of the source.

The test system of experiment [1] is PC-3 (human prostate cancer cells). Description: MTT assay for cell viability, PC-3. Conditions: 48 h. The experiment is classed as cell-based. As to the method: (§1) The human cancer cell lines e.g. HepG2 (hepatocellular carcinoma, ATCC® HB-8065™), PC-3 (human prostate cancer cells, ATCC® CRL-1435™), MCF-7 (breast adenocarcinoma, ATCC® […]), and mouse embryo fibroblasts (NIH/3T3, ATCC® CRL-1658™), used in the present study were obtained from the ATCC (American Type Culture Collection, USA and maintained in RPMI 1640 (Roswell Park Memorial Institute, Merck) with 10% FBS (Merck), supplemented with 1% antibiotic and antimycotic solution (Gibco, USA) at 37° C. in a humidified incubator with 5% CO2. All stock solutions of the compounds were prepared in cell culture grade DMSO (dimethyl sulfoxide) and stored at −20° C. Compounds were diluted in culture media prior to use in experiments. Annexin V-FITC apoptosis detection kits were purchased from Calbiochem. MTT dye was procured from Sigma-Aldrich. All the flow cytometry experiments were performed using a FACScan (Becton Dickinson, Mountain View, Calif.) flow cytometer, equipped with a single 488 nm argon laser.
(§2) Cell viability was assessed by MTT assay, which is based on the reduction of MTT by mitochondrial dehydrogenases of viable cells to form a purple formazan product. Briefly, cells (5-6×10^3/well) were plated in 96 well plates. After incubating overnight, the cells were treated with […] different concentrations (100, 50, 20, 10, 5, 2.5, 1.25 μM) in triplicates with the cationic lipidated cordiarimide and intermediates for 48 h. Subsequently, 10 μL of MTT (10 mg/mL) was added to each well and incubated for 3 h. The MTT formazan formed by viable cells was dissolved in 100 μL of DMSO and shaken for 10 min. The absorbance was measured on an ELISA reader. Each test was repeated at least three times. The concentration of the compound which gives the 50% growth inhibition value corresponding to IC50, was calculated using GraphPad prism 5 software. In the present invention we have screened 26 lipidated cordiarimides and the results are described in table 1.
For orientation: Tetrazolium assays rely on reduction of a dye to a coloured formazan, in cell work by metabolically active cells.

The test system of experiment [2] is mouse embryo fibroblasts (NIH/3T3). Briefly: MTT assay for cell viability, NIH/3T3. Particulars: NIH3T3, 48 h. The experiment is classed as cell-based. As to the method: as §1, §2
In the next experiment the test system is caspase-3 in HepG2 cells. Briefly: Caspase-3 colorimetric activation assay. Particulars: HepG2, 5 and 10 μM, 24 h. It counts as cell-based, human. As to the method: The activity of caspase-3 was determined using a caspase-3 colorimetric assay kit (Sigma Aldrich) according to the manufacturer's protocol. Briefly, HepG2 cells (1×10^6 cells/well) were treated with 5 and 10 μM of 8i and 8k for 24 h. The cells were harvested and lysed by addition of lysis buffer. Cell lysates were mixed with colorimetric substrate (Ac-DEVD-pNA) and incubated at 37° C. in the dark for 4 h. The absorbance was measured at 405 nm in an ELISA reader. Caspase-3 activity was expressed as the change of the activity compared to the control (FIG. 3).

Another experiment deals with human ligase I (Homo sapiens, UniProt P18858). Description: Ligation assay, DNA ligase I. The experiment is classed as biochemical. The source says:
(§3) The ligation assay was done strictly following the assay protocol described in Xi Chen et. al, Cancer Res 2008; 68(9):3169-3177. The DNA molecules 52 mer (5′-3′), 28-mer (5′-3′) and 34-mer (5′-3′) were used to construct a double stranded nicked substrate for the ligase enzyme (FIG. 4). The 34-mer oligo was labelled with 32P-AMP to form a substrate for ligase and to form a ligase-AMP intermediate. During ligation, the ligase would transfer the AMP to the nick forming a phosphodiester bond and seal the nick. The ligated DNA molecule would be larger in size and run higher up on a 7% Urea-containing denaturing acrylamide gel. If an inhibitor is added to the reaction mixture prior to the addition of ligase, this would lead to an inhibition of ligation and a corresponding loss of labelled ligated product in the gel. We would then be able to calculate the percentage of inhibition of ligation by estimating the amount of ligated product in the lane with no inhibitor and comparing it with the lanes containing different inhibitor molecules or with the same inhibitor molecule at different concentrations.

A further experiment has as its target ligase IV (Homo sapiens, UniProt P49917). Description: Ligation assay, DNA ligase IV. The experiment is classed as biochemical.
Text: as §3

The target in a further experiment is hLig1-DNA complex (Homo sapiens, UniProt P18858). Briefly: Electrophoretic mobility shift assay (EMSA). The experiment is classed as binding. Particulars: 25, 50 and 100 μM; hLig1 10 pmol, DNA 1 pmol. As to the method:
EMSA was performed as described in Xi Chen et. al, Cancer Res 2008; 68(9):3169-3177 with some modifications, for the interaction study between 8k and hLig1. Of the three oligos used to construct the DNA substrate, one was a 5′-FAM labelled 27-mer oligo with a dideoxy modified 3′ end. Other two oligos of 25-mer and 52-mer were used. These oligos were annealed to obtain a non-ligatable nicked DNA substrate which the ligase enzyme can recognize and bind to, but cannot ligate or release from it. […] Lanes 3-5 (FIG. 6A) contain increasing concentrations of the inhibitor. A shift in signal is seen is lanes 3-5. This shift in the ligase-DNA complex can occur only if the inhibitor binds to the complex of hLig1+DNA and increases the size of the complex. If inhibitor binds to ligase alone, then we would expect fewer signals in lanes 3-5. But since we see an increase in intensity of signal as well as a super-shift in the signal, we can reliably say that the inhibitor binds to the DNA-ligase complex and not separately to either DNA or ligase.

The next experiment addresses hLig1 (Homo sapiens, UniProt P18858). Description: Kinetic analysis of ligation inhibition (Lineweaver-Burk). It counts as biochemical. Conditions: 5 and 10 μM. The method, then: We measured the kinetics of hLig1 mediated ligation in the absence are presence of 8k at 5 and 10 μM concentrations and drew Lineweaver-Burk plots (FIG. 6B).
Experiment [3] has as its system linearized plasmid pUC18 DNA. Description: DNA intercalation assay. The experiment is classed as binding. Particulars: up to 100 μM, compared to doxorubicin. As to the method: Since there are multiple modes of inhibition of ligase activity, we wanted to determine whether 8k inhibited ligation by direct inhibition alone or through other means as well such as DNA intercalation. DNA intercalation assay was performed as described by Furlan et al., Biotechnol. Lett. 2002, 24, 1807-1813. We incubated 100 ng of linearized plasmid pUC18 DNA with increasing concentrations (50, 100, 200 μM) of Doxorubicin (positive control), ampicillin (negative control), and 8k for 30 minutes at 37° C. Reaction products were resolved on a 1% agarose gel at 5.3 V/cm. Gel was visualized by ethidium bromide staining.

Chain of human ligase I (P18858 whole entry): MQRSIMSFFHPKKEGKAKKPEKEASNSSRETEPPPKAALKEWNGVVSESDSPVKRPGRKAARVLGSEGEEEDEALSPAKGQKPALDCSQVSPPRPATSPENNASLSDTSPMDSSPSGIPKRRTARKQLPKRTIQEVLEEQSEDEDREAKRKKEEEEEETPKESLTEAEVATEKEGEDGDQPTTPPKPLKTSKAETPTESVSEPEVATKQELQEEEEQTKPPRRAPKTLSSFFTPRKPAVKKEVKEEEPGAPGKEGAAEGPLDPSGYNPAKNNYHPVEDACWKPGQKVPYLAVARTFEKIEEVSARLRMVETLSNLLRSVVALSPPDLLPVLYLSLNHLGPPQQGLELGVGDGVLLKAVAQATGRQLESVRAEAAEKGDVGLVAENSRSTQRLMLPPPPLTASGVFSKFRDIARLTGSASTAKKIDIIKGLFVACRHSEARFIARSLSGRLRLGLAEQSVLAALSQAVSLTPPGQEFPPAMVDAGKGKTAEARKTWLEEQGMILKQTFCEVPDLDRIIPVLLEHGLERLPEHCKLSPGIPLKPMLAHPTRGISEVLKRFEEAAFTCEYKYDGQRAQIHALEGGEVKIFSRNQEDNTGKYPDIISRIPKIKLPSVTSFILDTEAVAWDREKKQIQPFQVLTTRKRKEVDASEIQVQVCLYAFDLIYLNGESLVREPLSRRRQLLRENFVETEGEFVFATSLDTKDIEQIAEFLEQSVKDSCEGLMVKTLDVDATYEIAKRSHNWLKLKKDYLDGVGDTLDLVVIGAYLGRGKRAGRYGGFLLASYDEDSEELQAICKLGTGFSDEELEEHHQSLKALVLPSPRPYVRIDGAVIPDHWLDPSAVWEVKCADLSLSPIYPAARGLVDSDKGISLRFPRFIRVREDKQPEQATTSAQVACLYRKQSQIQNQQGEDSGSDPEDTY
Chain of ligase IV (P49917 whole entry): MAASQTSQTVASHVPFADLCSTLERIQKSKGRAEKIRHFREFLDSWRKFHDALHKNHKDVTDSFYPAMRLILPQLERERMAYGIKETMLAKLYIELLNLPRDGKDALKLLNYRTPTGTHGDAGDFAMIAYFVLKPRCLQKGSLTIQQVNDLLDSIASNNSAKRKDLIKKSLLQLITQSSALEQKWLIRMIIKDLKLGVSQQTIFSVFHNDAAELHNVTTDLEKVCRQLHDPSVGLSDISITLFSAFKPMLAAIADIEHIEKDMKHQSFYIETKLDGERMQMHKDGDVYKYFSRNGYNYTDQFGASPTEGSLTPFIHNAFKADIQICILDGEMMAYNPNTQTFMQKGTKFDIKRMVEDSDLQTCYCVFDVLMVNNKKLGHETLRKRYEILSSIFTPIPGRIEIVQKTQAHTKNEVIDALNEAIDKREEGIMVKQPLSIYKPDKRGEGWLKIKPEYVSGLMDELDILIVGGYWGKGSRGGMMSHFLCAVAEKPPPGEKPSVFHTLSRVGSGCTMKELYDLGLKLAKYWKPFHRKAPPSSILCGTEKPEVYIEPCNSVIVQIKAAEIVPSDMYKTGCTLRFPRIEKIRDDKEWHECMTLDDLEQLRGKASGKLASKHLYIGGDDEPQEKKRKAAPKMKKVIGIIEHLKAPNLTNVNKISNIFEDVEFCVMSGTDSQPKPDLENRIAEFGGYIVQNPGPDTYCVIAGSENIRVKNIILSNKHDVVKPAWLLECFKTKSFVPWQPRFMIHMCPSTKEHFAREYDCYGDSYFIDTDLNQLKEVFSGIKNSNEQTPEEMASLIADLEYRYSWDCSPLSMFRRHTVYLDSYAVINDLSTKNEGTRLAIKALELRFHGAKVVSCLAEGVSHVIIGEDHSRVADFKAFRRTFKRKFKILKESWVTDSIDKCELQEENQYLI
Chain of ligase IV (Q13426 whole entry partner): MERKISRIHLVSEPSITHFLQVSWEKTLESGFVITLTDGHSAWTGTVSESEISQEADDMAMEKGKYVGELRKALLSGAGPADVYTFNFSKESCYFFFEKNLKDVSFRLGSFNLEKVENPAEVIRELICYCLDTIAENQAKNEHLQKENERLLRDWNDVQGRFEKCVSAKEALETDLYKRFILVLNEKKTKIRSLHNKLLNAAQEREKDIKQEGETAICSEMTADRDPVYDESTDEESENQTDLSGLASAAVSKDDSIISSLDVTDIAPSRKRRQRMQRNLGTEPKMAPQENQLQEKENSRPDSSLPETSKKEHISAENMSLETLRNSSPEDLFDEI
Chain of hLig1 (P18858 whole entry): as the sequence (P18858 whole entry) above
Chain of hLig1-DNA complex (P18858 whole entry, one chain of several): as the sequence (P18858 whole entry) above

The term IC50 denotes the concentration that inhibits the measured activity by half. Lower therefore signals greater potency in that assay. The term inhibition denotes how much of the control response was suppressed. A higher inhibition goes with strong suppression. Take `CCCCCCCCCCCC[N+](C)(CCCCCCCCCCCC)CC(=O)NC1CCC(=O)N(CC(=O)c2ccccc2)C1=O` (stereo not drawn) [Compound 8k, {[2,6-Dioxo-1-(2-oxo-2-phenyl-ethyl)-piperidin-3-ylcarbamoyl]-methyl}-Didodecyl-methyl-ammonium iodide]: the IC50 in experiment [1] was 5.61 µM; in experiment [1] (Homo sapiens) it was 5.6 µM; in experiment [2] it was over 20 µM. Further, the caspase-3 activation result with caspase-3 in HepG2 cells is “activated the caspase-3 in HepG2 cells dose dependently; also recorded: activated the casepase-3 in HepG2 cells dose dependently”. At human ligase I (1 μM), this compound had an inhibition at 1 µM of about 50%. At human ligase I (10 μM), the “inhibition of ligase I activity” value was “complete inhibition”. The “DNA ligase I / ligation inhibition (in words)” value on human ligase I (screening, FIG. 4 and FIG. 7) is given as “most prolific inhibitor of ligation; also recorded: inhibition of DNA ligase I activity; also recorded: showed inhibition of DNA ligation”. For the same compound, at ligase IV (5 μM), the “inhibition of ligase IV” value is listed as “No appreciable inhibition”. Further, the “effect on ligase IV activity” value at ligase IV (even at higher concentrations) was “no effect”. For the same compound, on hLig1-DNA complex, the “mode of inhibition by EMSA” value is on record as “un-competitive mode of inhibition”. The “mode of inhibition by enzyme kinetics” value at hLig1 is listed as “un-competitively”. Moreover, the DNA intercalation result in experiment [3] is reported as “no appreciable intercalation”.
